Reference: US20110053923A1, “CHEMICAL COMPOUNDS 610” (AstraZeneca, priority 2008, published 2011)
pIC50: −log10 of the molar value. Where two headings read alike, the source gives them in different places.

Legend:
HT29 cells = assay: Cellular SRB assay (Test (d)), potentiation of carboplatin; assay type: cell-based; settings: for IC50: geometric mean
Protocol: (d) Cellular—SRB Assay The potentiation factor (PF50) for compounds is a measure of the fold increase in effect of a chemotherapeutic agent, when used in combination with an ATR inhibitor. Specifically, this is calculated as a ratio of the IC50 of control cell growth in the presence of a chemotherapeutic agent, typically carboplatin, divided by the IC50 of cell growth in the presence of this agent and the ATR inhibitor of interest. For this purpose, HT29 cells were seeded at the appropriate density to ensure exponential growth throughout the time of the assay (typically 1000-1500 cells) in each well of a 96-well plate, in a volume of 80 μl and incubated overnight at 37° C. Subsequently, cells were dosed with either DMSO vehicle, or treated with test compounds at fixed concentrations (typically 1, 0.3 & 0.1 μM). Following a one hour incubation at 37° C., the cells were further treated with a 10 point dose response of the chemotherapeutic agent, based on it's known sensitivity (typically 30-0.001 ug/ml for carboplatin). Cells were left to grow for 5 days at 37° C., after which time cell growth was assessed using the sulforhodamine B (SRB) assay (Skehan, P et al, 1990 New colorimetric cytotoxic assay for anticancer-drug screening. J. Natl. Cancer Inst. 82, 1107-1112.). Specifically, the media was removed and cells fixed with 100 μl of ice cold 10% (w/v) trichloroacetic acid. The plates were then incubated at 4° C. for 20 minutes prior to washing 4 times with water. Each well was then stained with 100 μL of 0.4% (w/v) SRB in 1% acetic acid for 20 minutes before a further 4 washes with 1% acetic acid. Plates were then dried for 2 hours at room temperature and the dye was solubilized by the addition of 100 μL Tris Base pH 8.5 into each well. Plates were shaken before measuring optical density at 564 nm (OD564). In order to calculate the PF50, the OD564 values obtained for the dose-response curve of chemotherapeutic agent were expressed as a percentage of the value obtained from cells treated with vehicle alone. Similarly, to act as a control for inclusion of the ATR inhibitor, values from the chemotherapeutic agent tested in combination with a fixed ATR inhibitor concentration were expressed as a percentage of the value obtained from cells treated with the corresponding concentration of ATR inhibitor alone. From these internally-controlled curves, IC50 values were calculated and the PF50 was determined as the ratio of these values, as described above. Compounds are compared using the PF50 value at concentrations of ATR inhibitor that show minimal growth inhibition on their own.

ATR = biological target: T1, ATR (Homo sapiens, UniProt Q13535); assay: Enzyme Assay - ATR (Test (a)); assay type: biochemical; settings: ATR immunoprecipitated from HeLa nuclear extract; 3 μM ATP; average of individual tests; read-out: ATR average IC50;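 further: kinase activity of bead-bound ATR toward a GST-p53 N-terminal fragment substrate, 1 h at 37 °C, read by chemiluminescence, with inhibitor-free wells as control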
T1 construct: obtained from HeLa nuclear extract (CIL Biotech, Mons, Belgium) by immunoprecipitation with rabbit polyclonal antiserum raised to amino acids 400-480 of ATR; host or cells: HeLa nuclear extract
T1 sequence (Q13535 whole entry, the tested form may be a part): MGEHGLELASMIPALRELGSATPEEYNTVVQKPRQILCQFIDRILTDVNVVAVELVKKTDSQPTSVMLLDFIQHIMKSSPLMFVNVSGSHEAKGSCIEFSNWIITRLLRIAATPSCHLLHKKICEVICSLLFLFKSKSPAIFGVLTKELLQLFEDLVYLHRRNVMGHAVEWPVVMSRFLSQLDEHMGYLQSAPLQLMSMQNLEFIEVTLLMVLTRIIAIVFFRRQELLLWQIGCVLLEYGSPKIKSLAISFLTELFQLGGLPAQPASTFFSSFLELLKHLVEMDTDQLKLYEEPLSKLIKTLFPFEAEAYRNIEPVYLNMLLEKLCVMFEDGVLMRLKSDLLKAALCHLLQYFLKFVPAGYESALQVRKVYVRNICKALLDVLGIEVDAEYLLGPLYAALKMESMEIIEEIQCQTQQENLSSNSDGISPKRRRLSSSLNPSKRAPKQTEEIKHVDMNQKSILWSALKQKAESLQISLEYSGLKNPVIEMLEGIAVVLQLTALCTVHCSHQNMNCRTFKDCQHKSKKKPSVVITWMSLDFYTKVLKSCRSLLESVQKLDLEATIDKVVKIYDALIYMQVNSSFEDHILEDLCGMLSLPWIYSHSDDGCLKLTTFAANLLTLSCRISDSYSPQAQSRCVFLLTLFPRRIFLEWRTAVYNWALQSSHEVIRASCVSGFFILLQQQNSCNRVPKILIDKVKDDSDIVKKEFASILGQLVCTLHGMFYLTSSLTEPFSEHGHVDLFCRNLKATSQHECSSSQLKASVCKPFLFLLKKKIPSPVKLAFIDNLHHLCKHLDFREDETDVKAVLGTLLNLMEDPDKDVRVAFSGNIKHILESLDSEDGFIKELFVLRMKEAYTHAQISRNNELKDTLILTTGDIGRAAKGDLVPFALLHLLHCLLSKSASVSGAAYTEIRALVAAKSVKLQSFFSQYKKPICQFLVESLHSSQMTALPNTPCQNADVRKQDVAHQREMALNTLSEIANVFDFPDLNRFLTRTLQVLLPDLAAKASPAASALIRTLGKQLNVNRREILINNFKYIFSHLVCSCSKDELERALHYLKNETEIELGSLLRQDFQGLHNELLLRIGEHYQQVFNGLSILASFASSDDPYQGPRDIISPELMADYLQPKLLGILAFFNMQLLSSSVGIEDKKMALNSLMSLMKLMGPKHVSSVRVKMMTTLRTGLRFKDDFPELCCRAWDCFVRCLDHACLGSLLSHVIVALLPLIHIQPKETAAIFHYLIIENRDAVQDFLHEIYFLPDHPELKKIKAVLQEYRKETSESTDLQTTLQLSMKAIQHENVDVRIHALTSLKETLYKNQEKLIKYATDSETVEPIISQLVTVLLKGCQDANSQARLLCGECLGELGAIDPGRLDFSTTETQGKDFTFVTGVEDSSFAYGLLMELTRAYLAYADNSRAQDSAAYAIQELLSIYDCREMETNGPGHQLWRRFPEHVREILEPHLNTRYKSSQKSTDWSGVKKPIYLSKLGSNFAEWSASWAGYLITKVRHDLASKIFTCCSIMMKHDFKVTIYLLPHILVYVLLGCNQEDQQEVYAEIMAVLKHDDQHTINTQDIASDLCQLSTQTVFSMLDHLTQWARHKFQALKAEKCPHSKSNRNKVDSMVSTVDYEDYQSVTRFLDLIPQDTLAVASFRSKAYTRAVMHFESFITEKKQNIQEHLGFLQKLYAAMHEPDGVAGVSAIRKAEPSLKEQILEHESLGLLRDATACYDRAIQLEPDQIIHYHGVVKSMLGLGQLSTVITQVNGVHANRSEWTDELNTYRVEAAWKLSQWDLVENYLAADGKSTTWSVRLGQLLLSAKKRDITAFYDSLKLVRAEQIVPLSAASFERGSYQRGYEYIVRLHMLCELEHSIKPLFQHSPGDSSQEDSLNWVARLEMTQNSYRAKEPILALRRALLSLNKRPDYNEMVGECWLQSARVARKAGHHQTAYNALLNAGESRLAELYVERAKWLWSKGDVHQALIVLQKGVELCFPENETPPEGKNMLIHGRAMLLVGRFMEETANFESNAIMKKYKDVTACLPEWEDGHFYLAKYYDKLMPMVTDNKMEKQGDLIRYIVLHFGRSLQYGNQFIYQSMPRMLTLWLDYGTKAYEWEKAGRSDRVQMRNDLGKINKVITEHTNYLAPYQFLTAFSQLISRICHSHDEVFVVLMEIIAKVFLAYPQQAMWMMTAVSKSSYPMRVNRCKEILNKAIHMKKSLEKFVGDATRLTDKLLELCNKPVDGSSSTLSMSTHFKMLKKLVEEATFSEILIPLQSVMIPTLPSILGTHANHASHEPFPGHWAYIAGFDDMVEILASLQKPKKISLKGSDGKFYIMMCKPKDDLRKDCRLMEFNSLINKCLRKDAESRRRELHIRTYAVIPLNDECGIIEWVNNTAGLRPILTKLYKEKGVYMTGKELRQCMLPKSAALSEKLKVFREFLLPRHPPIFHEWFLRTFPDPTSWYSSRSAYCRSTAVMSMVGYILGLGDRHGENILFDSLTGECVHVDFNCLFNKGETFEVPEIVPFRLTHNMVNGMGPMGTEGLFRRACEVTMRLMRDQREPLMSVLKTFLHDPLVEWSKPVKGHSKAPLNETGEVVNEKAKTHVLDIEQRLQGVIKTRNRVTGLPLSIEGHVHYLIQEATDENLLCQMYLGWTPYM
T1 sequence (Q8WXE1 whole entry partner, the tested form may be a part): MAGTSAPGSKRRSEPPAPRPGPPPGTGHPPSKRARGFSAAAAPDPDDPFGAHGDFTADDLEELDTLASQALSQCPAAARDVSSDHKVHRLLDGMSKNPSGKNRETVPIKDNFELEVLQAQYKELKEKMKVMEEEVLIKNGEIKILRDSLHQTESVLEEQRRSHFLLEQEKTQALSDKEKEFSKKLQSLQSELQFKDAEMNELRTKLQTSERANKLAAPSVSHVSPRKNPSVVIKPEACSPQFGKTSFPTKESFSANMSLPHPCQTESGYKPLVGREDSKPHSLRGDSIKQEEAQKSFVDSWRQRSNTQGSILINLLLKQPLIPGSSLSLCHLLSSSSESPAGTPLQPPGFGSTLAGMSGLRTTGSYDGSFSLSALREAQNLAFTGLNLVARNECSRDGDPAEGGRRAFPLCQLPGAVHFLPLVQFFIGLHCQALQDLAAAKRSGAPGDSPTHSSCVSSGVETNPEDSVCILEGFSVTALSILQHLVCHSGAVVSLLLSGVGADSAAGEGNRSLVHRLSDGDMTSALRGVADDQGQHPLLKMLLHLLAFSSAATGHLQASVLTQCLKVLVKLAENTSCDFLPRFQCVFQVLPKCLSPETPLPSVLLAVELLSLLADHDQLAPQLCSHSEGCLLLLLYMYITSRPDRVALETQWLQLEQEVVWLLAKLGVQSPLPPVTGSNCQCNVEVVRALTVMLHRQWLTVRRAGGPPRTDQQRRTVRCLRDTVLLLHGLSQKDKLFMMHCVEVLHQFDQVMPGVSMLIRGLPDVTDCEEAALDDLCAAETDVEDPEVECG

mTOR = mTOR (Homo sapiens, UniProt P42345); assay: Enzyme - mTOR Kinase Assay (Echo); assay type: biochemical; settings: recombinant FLAG-tagged mTOR (1362-2549); AlphaScreen; ATP 20 μM;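 further: enzyme expressed in HEK293 cells, 2 h incubation at room temperature, read-out is phosphorylation of a biotinylated peptide substrate detected with an anti-phospho p70 S6 Kinase (T389) antibody, inhibition lowers signal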
Chain of mTOR (P42345 1362-2549): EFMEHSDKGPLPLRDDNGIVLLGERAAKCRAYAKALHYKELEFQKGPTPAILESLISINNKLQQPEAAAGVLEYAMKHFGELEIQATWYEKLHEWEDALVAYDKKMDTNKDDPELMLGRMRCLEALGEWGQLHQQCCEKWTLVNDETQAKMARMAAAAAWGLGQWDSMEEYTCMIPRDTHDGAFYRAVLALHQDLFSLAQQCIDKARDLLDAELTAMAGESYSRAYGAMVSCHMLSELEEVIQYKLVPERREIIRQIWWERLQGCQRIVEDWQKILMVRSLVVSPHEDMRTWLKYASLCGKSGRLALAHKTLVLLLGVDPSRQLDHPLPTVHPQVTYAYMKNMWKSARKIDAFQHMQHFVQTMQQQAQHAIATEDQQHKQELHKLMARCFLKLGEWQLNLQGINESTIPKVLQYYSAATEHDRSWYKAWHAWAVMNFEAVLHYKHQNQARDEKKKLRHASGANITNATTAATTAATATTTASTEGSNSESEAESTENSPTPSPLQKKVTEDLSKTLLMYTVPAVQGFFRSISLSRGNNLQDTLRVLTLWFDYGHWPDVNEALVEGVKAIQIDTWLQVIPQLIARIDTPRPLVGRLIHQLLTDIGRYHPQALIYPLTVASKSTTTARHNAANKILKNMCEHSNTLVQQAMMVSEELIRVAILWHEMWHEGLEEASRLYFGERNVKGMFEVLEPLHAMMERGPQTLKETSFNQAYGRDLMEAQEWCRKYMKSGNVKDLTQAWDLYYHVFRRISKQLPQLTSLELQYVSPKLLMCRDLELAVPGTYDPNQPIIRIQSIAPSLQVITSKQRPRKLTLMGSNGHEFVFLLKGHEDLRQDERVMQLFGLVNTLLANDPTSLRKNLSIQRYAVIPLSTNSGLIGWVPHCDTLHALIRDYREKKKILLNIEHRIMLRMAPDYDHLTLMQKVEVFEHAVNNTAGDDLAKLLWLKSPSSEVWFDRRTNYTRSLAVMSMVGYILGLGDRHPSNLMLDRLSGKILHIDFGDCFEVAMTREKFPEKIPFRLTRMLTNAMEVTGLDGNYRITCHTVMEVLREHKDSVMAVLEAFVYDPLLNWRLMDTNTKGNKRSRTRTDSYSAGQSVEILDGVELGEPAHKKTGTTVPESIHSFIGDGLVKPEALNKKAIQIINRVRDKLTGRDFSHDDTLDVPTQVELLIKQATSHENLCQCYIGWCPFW

Row | pIC50 (ATR) | pIC50 (mTOR) | SMILES | further results
1 | – | – | N.N.O=C([O-])C1(C(=O)[O-])CCC1.[Pt+2] [Carboplatin, reference compound] | IC50 (HT29 cells; Carboplatin alone, 5 days growth): 3.97 µg/mL
2 | – | – | C[C@@H]1COCCN1c1cc(C2(S(C)(=O)=O)CC2)nc(-c2cccc3[nH]ccc23)n1 [Example 3.01, 4-{4-[(3R)-3-Methylmorpholin-4-yl]-6-[1-(methylsulfonyl)cyclopropyl]pyrimidin-2-yl}-1H-indole] | IC50 (HT29 cells; Homo sapiens, HT-29, 120 h, Carboplatin + 0.1 uM Example 3.01, 5 days growth, read-out: IC50): 1.96 µg/mL; IC50 (HT29 cells; Homo sapiens, HT-29, 120 h, Carboplatin + 0.3 uM Example 3.01, 5 days growth, read-out: IC50): 0.39 µg/mL; PF50 (HT29 cells; potentiation factor of Carboplatin by 0.1 uM Example 3.01 (ratio of IC50 values)): 2.02; PF50 (HT29 cells; potentiation factor of Carboplatin by 0.3 uM Example 3.01 (ratio of IC50 values)): 10.08
3 | 8.64 | 6.65 | C[C@@H]1COCCN1c1cc(C2(S(C)(=O)=O)CCOCC2)nc(-c2cccc3[nH]ccc23)n1 [Example 3.08, 4-{4-[(3R)-3-Methylmorpholin-4-yl]-6-[4-(methylsulfonyl)tetrahydro-2H-pyran-4-yl]pyrimidin-2-yl}-1H-indole] | –
4 | 8.80 | 6.35 | Cc1cc(-c2nc(N3CCOC[C@H]3C)cc(C3(S(C)(=O)=O)CCOCC3)n2)c2cc[nH]c2c1 [Example 3.09, 6-Methyl-4-{4-[(3R)-3-methylmorpholin-4-yl]-6-[4-(methylsulfonyl)tetrahydro-2H-pyran-4-yl]pyrimidin-2-yl}-1H-indole] | –
5 | 8.45 | 6.84 | Cc1cc2c(-c3nc(N4CCOC[C@H]4C)cc(C4(S(C)(=O)=O)CCOCC4)n3)cccc2[nH]1 [Example 3.10, 2-Methyl-4-{4-[(3R)-3-methylmorpholin-4-yl]-6-[4-(methylsulfonyl)tetrahydro-2H-pyran-4-yl]pyrimidin-2-yl}-1H-indole] | –
6 | 8.80 | 7.11 | COc1cc(-c2nc(N3CCOC[C@H]3C)cc(C3(S(C)(=O)=O)CCOCC3)n2)c2cc[nH]c2c1 [Example 3.11, 6-Methoxy-4-{4-[(3R)-3-methylmorpholin-4-yl]-6-[4-(methylsulfonyl)tetrahydro-2H-pyran-4-yl]pyrimidin-2-yl}-1H-indole] | –
7 | 8.60 | 6.38 | C[C@@H]1COCCN1c1cc(C2(S(C)(=O)=O)CCOCC2)nc(-c2cc(Cl)cc3[nH]ccc23)n1 [Example 3.12] | –
8 | 8.81 | 6.60 | C[C@@H]1COCCN1c1cc(C2(S(C)(=O)=O)CCOCC2)nc(-c2cc(F)cc3[nH]ccc23)n1 [Example 3.13, 6-fluoro-4-{4-[(3R)-3-methylmorpholin-4-yl]-6-[4-(methylsulfonyl)tetrahydro-2H-pyran-4-yl]pyrimidin-2-yl}-1H-indole] | –
9 | 7.85 | 6.16 | C[C@@H]1COCCN1c1cc(C2(S(C)(=O)=O)CCOCC2)nc(-c2cc(C#N)cc3[nH]ccc23)n1 [Example 3.14, 4-{4-[(3R)-3-methylmorphohn-4-yl]-6-[4-(methylsulfonyl)tetrahydro-2H-pyran-4-yl]pyrimidin-2-yl}-1H-indole-6-carbonitrile] | –
10 | 8.59 | 6.01 | C[C@@H]1COCCN1c1cc(C2(S(C)(=O)=O)CCNCC2)nc(-c2cccc3[nH]ccc23)n1 [Example 3.15, 4-{4-[(3R)-3-Methylmorpholin-4-yl]-6-[4-(methylsulfonyl)piperidin-4-yl]pyrimidin-2-yl}-1H-indole] | –
11 | 8.70 | 7.07 | C[C@@H]1COCCN1c1cc(C2(S(C)(=O)=O)CCC2)nc(-c2cccc3[nH]ccc23)n1 [Example 3.16, 4-{4-[(3R)-3-Methylmorpholin-4-yl]-6-[1-(methylsulfonyl)cyclobutyl]pyrimidin-2-yl}-1H-indole] | –
12 | 8.65 | 7.01 | C[C@@H]1COCCN1c1cc(C2(S(=O)(=O)C3CC3)CC2)nc(-c2cccc3[nH]ccc23)n1 [Example 3.17, 4-{4-[1-(Cyclopropylsulfonyl)cyclopropyl]-6-[(3R)-3-methylmorpholin-4-yl]pyrimidin-2-yl}-1H-indole] | –
13 | 8.12 | 6.42 | C[C@@H]1COCCN1c1cc(C2(S(=O)(=O)C3CC3)CCNCC2)nc(-c2cccc3[nH]ccc23)n1 [Example 3.18, 4-{4-[4-(Cyclopropylsulfonyl)piperidin-4-yl]-6-[(3R)-3-methylmorpholin-4-yl]pyrimidin-2-yl}-1H-indole] | –
14 | 7.01 | 5.55 | C[C@@H]1COCCN1c1cc(C2(S(=O)(=O)C3CC3)CCOCC2)nc(-c2cccc3[nH]ccc23)n1 [Example 3.19, 4-{4-[4-(Cyclopropylsulfonyl)tetrahydro-2H-pyran-4-yl]-6-[(3R)-3-methylmorpholin-4-yl]pyrimidin-2-yl}-1H-indole] | –
15 | 8.60 | 7.15 | CCS(=O)(=O)C1(c2cc(N3CCOC[C@H]3C)nc(-c3cccc4[nH]ccc34)n2)CC1 [Example 3.20, 4-{4-[1-(Ethylsulfonyl)cyclopropyl]-6-[(3R)-3-methylmorpholin-4-yl]pyrimidin-2-yl}-1H-indole] | –
16 | 8.16 | 6.16 | CCS(=O)(=O)C1(c2cc(N3CCOC[C@H]3C)nc(-c3cccc4[nH]ccc34)n2)CCOCC1 [Example 3.21, 4-{4-[4-(Ethylsulfonyl)tetrahydro-2H-pyran-4-yl]-6-[(3R)-3-methylmorpholin-4-yl]pyrimidin-2-yl}-1H-indole] | –
17 | 8.09 | 6.26 | CCS(=O)(=O)C1(c2cc(N3CCOC[C@H]3C)nc(-c3cccc4[nH]ccc34)n2)CCNCC1 [Example 3.22, 4-{4-[4-(Ethylsulfonyl)piperidin-4-yl]-6-[(3R)-3-methylmorpholin-4-yl]pyrimidin-2-yl}-1H-indole] | –
18 | 8.61 | 7.05 | CC(C)S(=O)(=O)C1(c2cc(N3CCOC[C@H]3C)nc(-c3cccc4[nH]ccc34)n2)CC1 [Example 3.23, 4-(4-{1-[(1-Methylethyl)sulfonyl]cyclopropyl}-6-[(3R)-3-methylmorpholin-4-yl]pyrimidin-2-yl)-1H-indole] | –
19 | 6.58 | 5.21 | CC(C)S(=O)(=O)C1(c2cc(N3CCOC[C@H]3C)nc(-c3cccc4[nH]ccc34)n2)CCOCC1 [Example 3.24, 4-(4-{4-[(1-Methylethyl)sulfonyl]tetrahydro-2H-pyran-4-yl}-6-[(3R)-3-methylmorpholin-4-yl]pyrimidin-2-yl)-1H-indole] | –
20 | 7.69 | 5.37 | CC(C)S(=O)(=O)C1(c2cc(N3CCOC[C@H]3C)nc(-c3cccc4[nH]ccc34)n2)CCNCC1 [Example 3.25, 4-(4-{4-[(1-Methylethyl)sulfonyl]piperidin-4-yl}-6-[(3R)-3-methylmorpholin-4-yl]pyrimidin-2-yl)-1H-indole] | –
